Data published in the NIST ThermoML archive (doi:10.1016/j.jct.2014.01.020).
Numbers after ± are expanded uncertainties.

Assay: molar heat capacity at constant pressure; xn = mol fraction of the nth substance listed
Conditions: Liquid, Flow calorimetry

C1CCCCC1 [cyclohexane] + CCCCO
molar heat capacity at constant pressure [J/K/mol]
Conditions | x2 = 0 | x2 = 0.1013 | x2 = 0.2003 | x2 = 0.3002 | x2 = 0.4013 | x2 = 0.4997 | x2 = 0.6002 | x2 = 0.6999 | x2 = 0.7998 | x2 = 0.8999
293.15 K, 100 kPa | 154.7 ± 1.6 | 164.6 ± 1.7 | 166.7 ± 1.7 | 168.6 ± 1.7 | 170.9 ± 1.7 | 171.2 ± 1.7 | 171.4 ± 1.7 | 172.1 ± 1.7 | 172.2 ± 1.7 | 172.8 ± 1.7
293.15 K, 5000 kPa | 153.8 ± 1.6 | 163.3 ± 1.7 | 165.3 ± 1.7 | 167.1 ± 1.7 | 169.5 ± 1.7 | 169.7 ± 1.7 | 170.2 ± 1.7 | 170.6 ± 1.7 | 171 ± 1.7 | 171.9 ± 1.7
293.15 K, 10000 kPa | 152.5 ± 1.5 | 161.2 ± 1.6 | 163.5 ± 1.7 | 165.4 ± 1.7 | 167.7 ± 1.7 | 168.2 ± 1.7 | 168.6 ± 1.7 | 169.4 ± 1.7 | 169.5 ± 1.7 | 170.4 ± 1.7
293.15 K, 15000 kPa | 150.5 ± 1.5 | 159.1 ± 1.6 | 161 ± 1.6 | 163.4 ± 1.7 | 165.5 ± 1.7 | 165.9 ± 1.7 | 166.3 ± 1.7 | 168 ± 1.7 | 168.3 ± 1.7 | 169.1 ± 1.7
293.15 K, 20000 kPa | 149.7 ± 1.5 | 157.5 ± 1.6 | 159.3 ± 1.6 | 161.7 ± 1.6 | 164.4 ± 1.7 | 164.9 ± 1.7 | 164.8 ± 1.7 | 167.1 ± 1.7 | 167.1 ± 1.7 | 167.7 ± 1.7
293.15 K, 25000 kPa | 147.7 ± 1.5 | 155.9 ± 1.6 | 157.8 ± 1.6 | 160.3 ± 1.6 | 162.8 ± 1.6 | 163.1 ± 1.6 | 163.4 ± 1.7 | 165.6 ± 1.7 | 166 ± 1.7 | 166.6 ± 1.7
313.15 K, 100 kPa | – | 179.7 ± 1.8 | 182.8 ± 1.8 | 185.3 ± 1.9 | 187.8 ± 1.9 | 188.1 ± 1.9 | 189.4 ± 1.9 | 191.3 ± 1.9 | 191.4 ± 1.9 | 191.1 ± 1.9
313.15 K, 5000 kPa | – | 177.4 ± 1.8 | 180.4 ± 1.8 | 183.2 ± 1.9 | 186.1 ± 1.9 | 186.5 ± 1.9 | 187.4 ± 1.9 | 189.1 ± 1.9 | 189.9 ± 1.9 | 189.3 ± 1.9
313.15 K, 10000 kPa | – | 175.2 ± 1.8 | 178.8 ± 1.8 | 181.1 ± 1.8 | 183.7 ± 1.9 | 184.5 ± 1.9 | 185.4 ± 1.9 | 187.4 ± 1.9 | 188.9 ± 1.9 | 187.3 ± 1.9
313.15 K, 15000 kPa | – | 172.9 ± 1.7 | 175.8 ± 1.8 | 178.9 ± 1.8 | 181.6 ± 1.8 | 182.7 ± 1.8 | 183.8 ± 1.9 | 185.5 ± 1.9 | 187.2 ± 1.9 | 186.5 ± 1.9
313.15 K, 20000 kPa | – | 170.5 ± 1.7 | 173.8 ± 1.8 | 177 ± 1.8 | 180.4 ± 1.8 | 180.7 ± 1.8 | 181.4 ± 1.8 | 184.3 ± 1.9 | 185.4 ± 1.9 | 184.6 ± 1.9
313.15 K, 25000 kPa | 154.6 ± 1.6 | 168.7 ± 1.7 | 171.6 ± 1.7 | 175 ± 1.8 | 177.8 ± 1.8 | 179.3 ± 1.8 | 179.7 ± 1.8 | 182.3 ± 1.8 | 183.9 ± 1.9 | 183.1 ± 1.9
